Laboratory results taken from patent US20120083522A1, “MODULATION OF INFLAMMATORY RESPONSES BY FACTOR XI” (Isis Pharmaceuitcals, inc., priority 2009, published 2012).

Test system: human Factor XI mRNA
Experiment: Antisense inhibition in HepG2 cells by microwalk gapmers, 75 nM, lipofectin (Example 3)
Format: cell-based
Details: HepG2 cells, 75 nM, oligonucleotides targeted to nucleobases 1018 to 1042 of SEQ ID NO: 1
Summary of the method: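 HepG2 cells (10,000 per well) were transfected with 75 nM gapmer using lipofectin and treated for about 24 h. Factor XI mRNA was quantified by real-time PCR, normalized to RiboGreen total RNA and expressed as percent inhibition versus untreated controls.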

**Q.** With “416838 (antisense GCAACCGGGATGATGAGTGC; 5-10-5 gapmer, wing sugar chemistry not given here, further chemistry not given here) [compound 416838]” as the substance, how does the “% inhibition of human Factor XI mRNA levels” value read?
**A.** The value was 94%.

Same assay, conditions: HepG2 cells, 75 nM, oligonucleotides targeted to nucleobases 1275 to 1318 of SEQ ID NO: 1

**Q.** With “416858 (antisense ACGGCATTGGTGCACAGTTT; 5-10-5 gapmer, wing sugar chemistry not given here, further chemistry not given here) [compound 416858]” as the substance, how does the “% inhibition of human Factor XI mRNA levels” value read?
**A.** Its value is 93%.

Test system: human Factor XI mRNA
Experiment: Dose-dependent inhibition in HepB3 cells, lipofectin (Example 7)
Format: cell-based
Details: 2.3 nM, approx. 16 h
Procedure: Cells were plated at a density of 4,000 cells per well and transfected using lipofectin reagent with 2.3 nM, 4.7 nM, 9.4 nM, 18.75 nM, 37.5 nM, and 75 nM concentrations of antisense oligonucleotide, as specified in Table 14. After a treatment period of approximately 16 hours, RNA was isolated from the cells and human Factor XI mRNA levels were measured by quantitative real-time PCR. Human Factor XI primer probe set RTS 2966 was used to measure mRNA levels. Factor XI mRNA levels were adjusted according to total RNA content, as measured by RIBOGREEN®. Results are presented as percent inhibition of Factor XI, relative to untreated control cells.

**Q.** With “416858 (antisense ACGGCATTGGTGCACAGTTT; 5-10-5 gapmer, wing sugar chemistry not given here, further chemistry not given here) [compound 416858]” as the substance, how does the “percent inhibition of human Factor XI mRNA” value (from here on “percent inhibition”) read?
**A.** The value was 17%.

**Q.** With “416838 (antisense GCAACCGGGATGATGAGTGC; 5-10-5 gapmer, wing sugar chemistry not given here, further chemistry not given here) [compound 416838]” as the substance, how does the “percent inhibition” value read?
**A.** The value was 23%.

Same assay, conditions: 4.7 nM, approx. 16 h

**Q.** With “416858 (antisense ACGGCATTGGTGCACAGTTT; 5-10-5 gapmer, wing sugar chemistry not given here, further chemistry not given here) [compound 416858]” as the substance, how does the “percent inhibition” value read?
**A.** Its value is 34%.

**Q.** Which “percent inhibition” value does the source give for “416838 (antisense GCAACCGGGATGATGAGTGC; 5-10-5 gapmer, wing sugar chemistry not given here, further chemistry not given here) [compound 416838]” here?
**A.** The value was 34%.

Same assay, conditions: 9.4 nM, approx. 16 h

**Q.** Which “percent inhibition” value does the source give for “416858 (antisense ACGGCATTGGTGCACAGTTT; 5-10-5 gapmer, wing sugar chemistry not given here, further chemistry not given here) [compound 416858]” here?
**A.** Its value is 43%.

**Q.** With “416838 (antisense GCAACCGGGATGATGAGTGC; 5-10-5 gapmer, wing sugar chemistry not given here, further chemistry not given here) [compound 416838]” as the substance, how does the “percent inhibition” value read?
**A.** Its value is 43%.

Same assay, conditions: 18.75 nM, approx. 16 h

**Q.** With “416858 (antisense ACGGCATTGGTGCACAGTTT; 5-10-5 gapmer, wing sugar chemistry not given here, further chemistry not given here) [compound 416858]” as the substance, how does the “percent inhibition” value read?
**A.** Its value is 57%.

**Q.** Which “percent inhibition” value does the source give for “416838 (antisense GCAACCGGGATGATGAGTGC; 5-10-5 gapmer, wing sugar chemistry not given here, further chemistry not given here) [compound 416838]” here?
**A.** Its value is 59%.

Same assay, conditions: 37.5 nM, approx. 16 h

**Q.** For “416858 (antisense ACGGCATTGGTGCACAGTTT; 5-10-5 gapmer, wing sugar chemistry not given here, further chemistry not given here) [compound 416858]”, which “percent inhibition” value is on record?
**A.** The value was 74%.

**Q.** Which “percent inhibition” value does the source give for “416838 (antisense GCAACCGGGATGATGAGTGC; 5-10-5 gapmer, wing sugar chemistry not given here, further chemistry not given here) [compound 416838]” here?
**A.** The value was 71%.

Same assay, conditions: 75 nM, approx. 16 h

**Q.** For “416858 (antisense ACGGCATTGGTGCACAGTTT; 5-10-5 gapmer, wing sugar chemistry not given here, further chemistry not given here) [compound 416858]”, which “percent inhibition” value is on record?
**A.** Its value is 62%.

**Q.** With “416838 (antisense GCAACCGGGATGATGAGTGC; 5-10-5 gapmer, wing sugar chemistry not given here, further chemistry not given here) [compound 416838]” as the substance, how does the “percent inhibition” value read?
**A.** Its value is 56%.

Test system: not listed separately
Experiment: Tolerability in Sprague-Dawley rats: body and organ weight (Example 19)
Format: in vivo
Details: 50 mg/kg s.c. twice per week for 6 weeks, change over weight at start of study
Source text: Urine samples were taken before the start of treatment.
The body weights are presented in Table 78 and are expressed as a percent change over the weights taken at the start of the study.

**Q.** With “416858 (antisense ACGGCATTGGTGCACAGTTT; 5-10-5 gapmer, wing sugar chemistry not given here, further chemistry not given here) [compound 416858]” as the substance, how does the “Percent change in Body weight” value read?
**A.** The value was −21%.

**Q.** Which “Percent change in Body weight” value does the source give for “416838 (antisense GCAACCGGGATGATGAGTGC; 5-10-5 gapmer, wing sugar chemistry not given here, further chemistry not given here) [compound 416838]” here?
**A.** The value was −23%.

Test system: human Factor XI mRNA
Experiment: Dose-dependent inhibition in HepB3 cells, electroporation (Example 7)
Format: cell-based
Details: 41.15 nM, approx. 16 h
Procedure: The gapmers were also transfected via electroporation and their dose dependent inhibition of human Factor XI mRNA was measured. Cells were plated at a density of 20,000 cells per well and transfected via electroporation with 41.15 nM, 123.457 nM, 370.37 nM, 1111.11 nM, 3333.33 nM, and 10,000 nM concentrations of antisense oligonucleotide, as specified in Table 15. After a treatment period of approximately 16 hours, RNA was isolated from the cells and human Factor XI mRNA levels were measured by quantitative real-time PCR. Human Factor XI primer probe set RTS 2966 was used to measure mRNA levels. Factor XI mRNA levels were adjusted according to total RNA content, as measured by RIBOGREEN®. Results are presented as percent inhibition of human Factor XI, relative to untreated control cells.

**Q.** For “416858 (antisense ACGGCATTGGTGCACAGTTT; 5-10-5 gapmer, wing sugar chemistry not given here, further chemistry not given here) [compound 416858]”, which “percent inhibition” value is on record?
**A.** Its value is 23%.

**Q.** Which “percent inhibition” value does the source give for “416838 (antisense GCAACCGGGATGATGAGTGC; 5-10-5 gapmer, wing sugar chemistry not given here, further chemistry not given here) [compound 416838]” here?
**A.** Its value is 12%.

Same assay, conditions: 123.457 nM, approx. 16 h

**Q.** With “416858 (antisense ACGGCATTGGTGCACAGTTT; 5-10-5 gapmer, wing sugar chemistry not given here, further chemistry not given here) [compound 416858]” as the substance, how does the “percent inhibition” value read?
**A.** Its value is 45%.

**Q.** Which “percent inhibition” value does the source give for “416838 (antisense GCAACCGGGATGATGAGTGC; 5-10-5 gapmer, wing sugar chemistry not given here, further chemistry not given here) [compound 416838]” here?
**A.** The value was 9%.

Same assay, conditions: 370.37 nM, approx. 16 h

**Q.** Which “percent inhibition” value does the source give for “416858 (antisense ACGGCATTGGTGCACAGTTT; 5-10-5 gapmer, wing sugar chemistry not given here, further chemistry not given here) [compound 416858]” here?
**A.** The value was 52%.

**Q.** Which “percent inhibition” value does the source give for “416838 (antisense GCAACCGGGATGATGAGTGC; 5-10-5 gapmer, wing sugar chemistry not given here, further chemistry not given here) [compound 416838]” here?
**A.** Its value is 28%.

Same assay, conditions: 1111.11 nM, approx. 16 h

**Q.** Which “percent inhibition” value does the source give for “416858 (antisense ACGGCATTGGTGCACAGTTT; 5-10-5 gapmer, wing sugar chemistry not given here, further chemistry not given here) [compound 416858]” here?
**A.** Its value is 64%.

**Q.** For “416838 (antisense GCAACCGGGATGATGAGTGC; 5-10-5 gapmer, wing sugar chemistry not given here, further chemistry not given here) [compound 416838]”, which “percent inhibition” value is on record?
**A.** The value was 40%.

Same assay, conditions: 3333.33 nM, approx. 16 h

**Q.** With “416858 (antisense ACGGCATTGGTGCACAGTTT; 5-10-5 gapmer, wing sugar chemistry not given here, further chemistry not given here) [compound 416858]” as the substance, how does the “percent inhibition” value read?
**A.** The value was 87%.

**Q.** For “416838 (antisense GCAACCGGGATGATGAGTGC; 5-10-5 gapmer, wing sugar chemistry not given here, further chemistry not given here) [compound 416838]”, which “percent inhibition” value is on record?
**A.** Its value is 77%.

Same assay, conditions: 10000 nM, approx. 16 h

**Q.** With “416858 (antisense ACGGCATTGGTGCACAGTTT; 5-10-5 gapmer, wing sugar chemistry not given here, further chemistry not given here) [compound 416858]” as the substance, how does the “percent inhibition” value read?
**A.** The value was 92%.

**Q.** For “416838 (antisense GCAACCGGGATGATGAGTGC; 5-10-5 gapmer, wing sugar chemistry not given here, further chemistry not given here) [compound 416838]”, which “percent inhibition” value is on record?
**A.** Its value is 88%.

Test system: human Factor XI mRNA
Experiment: Dose-dependent inhibition in cyno primary hepatocytes, electroporation (Example 6)
Format: cell-based, cynomolgus monkey
Details: 0.74 nM, approx. 16 h
Procedure: Cells were plated at a density of 35,000 cells per well and transfected via electroporation with 0.74 nM, 2.2 nM, 6.7 nM, 20 nM, 60 nM, and 180 nM concentrations of antisense oligonucleotide, as specified in Table 13. After a treatment period of approximately 16 hours, RNA was isolated from the cells and human Factor XI mRNA levels were measured by quantitative real-time PCR. Human Factor XI primer probe set RTS 2966 was used to measure mRNA levels. Factor XI mRNA levels were adjusted according to total RNA content, as measured by RIBOGREEN®. Results are presented as percent inhibition of human Factor XI, relative to untreated control cells.

**Q.** For “416858 (antisense ACGGCATTGGTGCACAGTTT; 5-10-5 gapmer, wing sugar chemistry not given here, further chemistry not given here) [compound 416858]”, which “percent inhibition” value is on record?
**A.** The value was 2%.

**Q.** With “416838 (antisense GCAACCGGGATGATGAGTGC; 5-10-5 gapmer, wing sugar chemistry not given here, further chemistry not given here) [compound 416838]” as the substance, how does the “percent inhibition” value read?
**A.** Its value is 0%.

Same assay, conditions: 2.2 nM, approx. 16 h

**Q.** With “416858 (antisense ACGGCATTGGTGCACAGTTT; 5-10-5 gapmer, wing sugar chemistry not given here, further chemistry not given here) [compound 416858]” as the substance, how does the “percent inhibition” value read?
**A.** The value was 13%.

**Q.** For “416838 (antisense GCAACCGGGATGATGAGTGC; 5-10-5 gapmer, wing sugar chemistry not given here, further chemistry not given here) [compound 416838]”, which “percent inhibition” value is on record?
**A.** The value was 0%.

Same assay, conditions: 6.7 nM, approx. 16 h

**Q.** With “416858 (antisense ACGGCATTGGTGCACAGTTT; 5-10-5 gapmer, wing sugar chemistry not given here, further chemistry not given here) [compound 416858]” as the substance, how does the “percent inhibition” value read?
**A.** The value was 22%.

**Q.** With “416838 (antisense GCAACCGGGATGATGAGTGC; 5-10-5 gapmer, wing sugar chemistry not given here, further chemistry not given here) [compound 416838]” as the substance, how does the “percent inhibition” value read?
**A.** The value was 21%.

Same assay, conditions: 20 nM, approx. 16 h

**Q.** Which “percent inhibition” value does the source give for “416858 (antisense ACGGCATTGGTGCACAGTTT; 5-10-5 gapmer, wing sugar chemistry not given here, further chemistry not given here) [compound 416858]” here?
**A.** Its value is 44%.

**Q.** For “416838 (antisense GCAACCGGGATGATGAGTGC; 5-10-5 gapmer, wing sugar chemistry not given here, further chemistry not given here) [compound 416838]”, which “percent inhibition” value is on record?
**A.** The value was 34%.

Same assay, conditions: 60 nM, approx. 16 h

**Q.** For “416858 (antisense ACGGCATTGGTGCACAGTTT; 5-10-5 gapmer, wing sugar chemistry not given here, further chemistry not given here) [compound 416858]”, which “percent inhibition” value is on record?
**A.** Its value is 63%.

**Q.** For “416838 (antisense GCAACCGGGATGATGAGTGC; 5-10-5 gapmer, wing sugar chemistry not given here, further chemistry not given here) [compound 416838]”, which “percent inhibition” value is on record?
**A.** The value was 48%.

Same assay, conditions: 180 nM, approx. 16 h

**Q.** Which “percent inhibition” value does the source give for “416858 (antisense ACGGCATTGGTGCACAGTTT; 5-10-5 gapmer, wing sugar chemistry not given here, further chemistry not given here) [compound 416858]” here?
**A.** The value was 68%.

**Q.** Which “percent inhibition” value does the source give for “416838 (antisense GCAACCGGGATGATGAGTGC; 5-10-5 gapmer, wing sugar chemistry not given here, further chemistry not given here) [compound 416838]” here?
**A.** Its value is 62%.
